The record followed here is US8822514B2, “Multi-cyclic compounds and methods of use” (Amgen Inc., priority 2006, dated 2014).

Structures are written as SMILES.

Tie-2 kinase enzyme, sequence (Q02763 23-1124): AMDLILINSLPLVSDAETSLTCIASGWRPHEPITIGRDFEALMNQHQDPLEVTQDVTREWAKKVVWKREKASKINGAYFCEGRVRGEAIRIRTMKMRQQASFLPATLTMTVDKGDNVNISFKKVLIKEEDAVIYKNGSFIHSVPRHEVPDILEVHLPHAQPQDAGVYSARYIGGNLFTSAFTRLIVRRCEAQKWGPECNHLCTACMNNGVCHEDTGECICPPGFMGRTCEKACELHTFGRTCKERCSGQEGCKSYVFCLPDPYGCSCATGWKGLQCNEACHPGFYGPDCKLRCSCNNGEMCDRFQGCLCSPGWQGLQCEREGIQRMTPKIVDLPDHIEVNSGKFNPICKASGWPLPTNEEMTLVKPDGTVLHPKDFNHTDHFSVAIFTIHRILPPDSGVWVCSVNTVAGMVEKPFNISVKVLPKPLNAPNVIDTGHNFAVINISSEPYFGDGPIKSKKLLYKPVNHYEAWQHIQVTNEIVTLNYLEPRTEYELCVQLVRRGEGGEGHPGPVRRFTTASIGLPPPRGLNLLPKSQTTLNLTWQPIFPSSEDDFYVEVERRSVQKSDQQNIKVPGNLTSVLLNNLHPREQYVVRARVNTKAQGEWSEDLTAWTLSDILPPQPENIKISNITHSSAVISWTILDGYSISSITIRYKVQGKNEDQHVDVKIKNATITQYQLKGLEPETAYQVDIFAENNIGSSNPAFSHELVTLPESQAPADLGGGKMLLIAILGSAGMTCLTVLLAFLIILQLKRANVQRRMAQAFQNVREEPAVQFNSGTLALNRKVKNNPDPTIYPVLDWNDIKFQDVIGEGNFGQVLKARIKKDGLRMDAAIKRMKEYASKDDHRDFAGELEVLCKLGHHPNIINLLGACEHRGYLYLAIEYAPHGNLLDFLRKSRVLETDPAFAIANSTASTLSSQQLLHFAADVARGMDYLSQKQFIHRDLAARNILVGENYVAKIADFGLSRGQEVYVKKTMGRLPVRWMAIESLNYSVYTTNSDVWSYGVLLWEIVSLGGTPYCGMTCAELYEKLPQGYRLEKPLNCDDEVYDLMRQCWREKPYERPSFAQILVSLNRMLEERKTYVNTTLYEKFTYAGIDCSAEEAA

For the assay, the target named is Tie-2 kinase enzyme (Homo sapiens, UniProt Q02763). As to the kind of experiment: Tie-2 Homogenous Time Resolved Flourescent (HTRF) kinase assay. The format is biochemical. Particulars: 0.01 mM ATP, about 90 minutes at RT; read-out: IC50 for the inhibition of Tie-2 as measured by the HTRF assay. On the procedure:
IC50's for the inhibition of the Tie-2 kinase enzyme for individual compounds were measured using an HTRF assay, utilizing the following procedure:
In a 96 well plate (available from Costar Co.) was placed 1 uL of each test and standard compound per well in 100% DMSO having a 25 uM final compound concentration (3-fold, 10 point dilution). To each well was added 20 uL of a reaction mix formed from […], 0.05% BSA (0.1 uL; from a 10% stock solution available from Sigma-Aldrich Co.), 0.002 mM of BLC HER-2 KKK (Biotinylated Long chain peptide; 0.04 uL; from a […] stock solution), 0.01 mM concentration of ATP (0.02 uL; commercially available from Sigma-Aldrich Co.) and the remaining solution was water (15.84 uL) to make to a total volume of 20 uL/well.
The reaction was initiated in each well by adding 20 uL per well of an enzyme preparation consisting of a 50 mM concentration of Hepes (1.0 uL; from a 1000 mM stock solution commercially available from Gibco Co.), 0.05% concentration of BSA (0.1 uL), 4 mM of DTT (0.08 uL; from a 1000 mM stock solution available from Sigma-Aldrich Co.), a 2.4×10^−7 concentration of Tie-2 (0.02 uL, from a 4 mM concentration stock), with the remaining volume being water (18.8 uL) to dilute the enzyme preparation to a total volume of 20 uL. The plate was incubated for about 90 minutes at RT. After incubation, a 160 uL of a filtered detection mixture, prepared from 0.001 mg/ml of SA-APC (0.0765 uL; available as a 2.09 mg/ml stock solution from Gibco), 0.03125 nM concentration of Eu-Ab (0.1597 uL; available in a 31.3 nM stock solution from Gibco), with the remaining volume being Detection buffer (159.73 uL), was added to each well to stop the reaction therein. The plate was then allowed to equilibrate for about 3 hr and read on a Ruby Star fluorescent reader (available from BMG Technologies, Inc.) using a 4 parameter fit using activity base to calculate the corresponding IC50's for the test and standard compounds in each well.
For the compound `Cc1ccc(C(=O)Nc2cccc(C(C)C)c2)cc1Oc1ncccc1-c1cn[nH]c1` [Example 1, 3-(3-(1H-pyrazol-4-yl)pyridin-2-yloxy)-N-(3-isopropylphenyl)-4-methylbenzamide], the IC50 is not above 100 nM. Turning to `CN(C)CCCN(C)c1ccc(C(F)(F)F)cc1NC(=O)c1cc(Oc2ncccc2-c2cnco2)ccc1F` [Example 2, N-(2-((3-(dimethylamino)propyl)(methyl)amino)-5-(trifluoromethyl)phenyl)-2-fluoro-5-(3-(oxazol-5-yl)pyridin-2-yloxy)benzamide], the IC50 was not above 500 nM. Turning to `Cc1ccc(C(=O)Nc2cccc(C(C)C)c2)cc1Nc1ncccc1-c1nnn[nH]1` [Example 3, 3-(3-(1H-tetrazol-5-yl)pyridin-2-ylamino)-N-(3-isopropylphenyl)-4-methylbenzamide], the IC50 is not above 1000 nM.

Take `Cc1ccc(C(=O)Nc2cccc(C(C)C)c2)cc1Oc1ncccc1-c1cnn(Cc2ccccc2)c1` [Example 10, 3-(3-(1-benzyl-1H-pyrazol-4-yl)pyridin-2-yloxy)-N-(3-isopropylphenyl)-4-methylbenzamide]: the IC50 is not above 500 nM. The figure for `COc1ccc(C2CCCCC2)cc1NC(=O)c1ccc(C)c(Oc2ncccc2-c2cn[nH]c2)c1` [Example 11, 3-(3-(1H-pyrazol-4-yl)pyridin-2-yloxy)-N-(5-cyclohexyl-2-methoxyphenyl)-4-methylbenzamide] is not above 100 nM; for `Cc1ccc(C(=O)Nc2cccc(C(C)C)c2)cc1Nc1ncccc1-c1nnn[nH]1` [Example 12, 3-(3-(1H-tetrazol-5-yl)pyridin-2-ylamino)-N-(3-isopropylphenyl)-4-methylbenzamide] it is not above 500 nM; for `Cc1ccc(C(=O)Nc2cccc(C(C)C)c2)cc1Oc1ncccc1-c1cnco1` [Example 14, N-(3-isopropylphenyl)-4-methyl-3-(3-(oxazol-5-yl)pyridin-2-yloxy)benzamide] it is not above 100 nM.

Turning to `Cc1ccc(C(=O)Nc2cccc(C(F)(F)F)c2)cc1Oc1ncccc1-c1ccn[nH]1` [Example 15, 3-(3-(1H-pyrazol-5-yl)pyridin-2-yloxy)-4-methyl-N-(3-(trifluoromethyl)phenyl)benzamide], the IC50 is not above 500 nM. `O=C(Nc1cccc(OC(F)(F)F)c1)c1cc(Oc2ncccc2-c2cnco2)ccc1F` [Example 16, 2-fluoro-5-(3-(oxazol-5-yl)pyridin-2-yloxy)-N-(3-(trifluoromethoxy)phenyl)benzamide]: the 50% inhibitory concentration (IC50) was not above 1000 nM. The figure for `Cc1ccc(C(=O)Nc2cccc(C(C)C)c2)cc1Oc1ccccc1-c1cnco1` [Example 18, N-(3-isopropylphenyl)-4-methyl-3-(2-(oxazol-5-yl)phenoxy)benzamide] is not above 100 nM; for `Cc1ccc(C(=O)Nc2cc(C(F)(F)F)ccc2N(C)CCCN(C)C)cc1Oc1ccccc1-c1cnco1` [Example 19, N-(2-((3-(dimethylamino)propyl)(methyl)amino)-5-(trifluoromethyl)phenyl)-4-methyl-3-(2-(oxazol-5-yl)phenoxy)benzamide] it is not above 500 nM.

Turning to `Cc1ccc(C(=O)Nc2cc(C(F)(F)F)ccc2N(C)CCCN(C)C)cc1Oc1ncccc1-c1cnco1` [Example 20, N-(2-((3-(dimethylamino)propyl)(methyl)amino)-5-(trifluoromethyl)phenyl)-4-methyl-3-(3-(oxazol-5-yl)pyridin-2-yloxy)benzamide], the IC50 is not above 500 nM.

With `Cc1ccc(C(=O)Nc2cccc(C(F)(F)F)c2)cc1Oc1ncccc1-c1cnco1` [Example 22, 4-methyl-3-(3-(oxazol-5-yl)pyridin-2-yloxy)-N-(3-(trifluoromethyl)phenyl)benzamide], the IC50 was not above 100 nM.

For the compound `O=C(Nc1ccc(Oc2ncccc2-c2cn[nH]c2)cc1)c1ccccc1Nc1ccccc1` [Example 23, N-(4-(3-(1H-pyrazol-4-yl)pyridin-2-yloxy)phenyl)-2-(phenylamino)benzamide], the IC50 was not above 1000 nM.

Broadly, the IC50 is the concentration at which inhibition is half-maximal.
